Measurements from patent publication US20220106301A1, “ACETAMIDO-PHENYLBENZAMIDE DERIVATIVES AND METHODS OF USING THE SAME” (Athenex, Inc., priority 2020, published 2022).

Target: CYP3A4 (Homo sapiens, UniProt P08684)
Assay: Determination of CYP3A4 inhibitory activity (human liver microsome, Luciferin-IPA)
Conditions: CYP3A4 IC50 (nM), 37° C. 11 minutes
Procedure: The standard final Compound concentrations were 37, 111, 333, 1000, and 3000 nM. 12.5 μL of the Compound dilutions were transferred to a white 96-well plate. […] 25 μL of the buffer was added to each well. The plates were incubated at 37° C. for 11 minutes. 50 μL of luciferin detection reagent (Promega V9002) was added and the plates were incubated at room temperature for 5 minutes. The plate was read with a luminometer.
The dose-response curve and IC50 were obtained by fitting data to nonlinear regression model using GraphPad Prism software (v6.0).

Sequence of CYP3A4 (P08684 whole entry): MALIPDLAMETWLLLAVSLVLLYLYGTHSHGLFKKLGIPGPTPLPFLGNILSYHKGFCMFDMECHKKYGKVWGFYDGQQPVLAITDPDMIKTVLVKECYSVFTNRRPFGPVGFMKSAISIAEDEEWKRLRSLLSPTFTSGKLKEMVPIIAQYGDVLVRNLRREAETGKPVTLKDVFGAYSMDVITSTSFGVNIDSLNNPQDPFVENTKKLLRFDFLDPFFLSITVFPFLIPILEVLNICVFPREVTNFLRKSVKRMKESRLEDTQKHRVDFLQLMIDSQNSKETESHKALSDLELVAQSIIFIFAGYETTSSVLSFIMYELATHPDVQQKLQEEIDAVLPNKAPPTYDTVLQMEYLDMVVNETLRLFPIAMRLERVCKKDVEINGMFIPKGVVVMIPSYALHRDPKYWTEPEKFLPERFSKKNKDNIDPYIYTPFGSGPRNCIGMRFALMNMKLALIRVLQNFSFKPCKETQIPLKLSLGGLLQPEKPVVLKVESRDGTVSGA

Row | IC50 [nM] | Compound
1 | 100 to 250 | CCN(CCc1ccc(NC(=O)c2cc(OC)c(OC)cc2NC(=O)c2cc(=O)c3ccccc3o2)cc1)Cc1cccc(-n2cnc(C)c2)c1 [Compound 107]
2 | 250 to 500 | CCOc1cc(C(=O)Nc2ccc(CCN(C)Cc3ccc(-n4ccnc4)cc3)cc2)c(NC(=O)c2cc(=O)c3ccccc3o2)cc1OC [Compound 108]
3 | > 1000 | CCN(CCc1ccc(NC(=O)c2cc(OC)c(OC)cc2NC(=O)c2cc(=O)c3ccccc3o2)cc1)Cc1ccc2c(c1)ncn2C [Compound 109]
4 | 500 to 1000 | CCOc1cc(C(=O)Nc2ccc(CCN(C)Cc3cccc(-n4cnc(C)c4)c3)cc2)c(NC(=O)c2cc(=O)c3ccccc3o2)cc1OC [Compound 110]
5 | > 1000 | CCOc1cc(C(=O)Nc2ccc(CCN(C)Cc3ccc4c(cnn4C)c3)cc2)c(NC(=O)c2cc(=O)c3ccccc3o2)cc1OC [Compound 111]
6 | > 1000 | COc1cc(NC(=O)c2cc(=O)c3ccccc3o2)c(C(=O)Nc2ccc(CCN(C)Cc3ccc(-c4cscn4)cc3)cc2)cc1OC [Compound 112]
7 | > 1000 | COc1cc(NC(=O)c2cc(=O)c3ccccc3o2)c(C(=O)Nc2ccc(CCN(C)Cc3ccc(-c4ncco4)cc3)cc2)cc1OC [Compound 114]
8 | > 1000 | C#Cc1ccc(CN(C)CCc2ccc(NC(=O)c3cc(OC)c(OC)cc3NC(=O)c3cc(=O)c4ccccc4o3)cc2)cc1 [Compound 115]
9 | > 1000 | C#Cc1cccc(CN(C)CCc2ccc(NC(=O)c3cc(OC)c(OC)cc3NC(=O)c3cc(=O)c4ccccc4o3)cc2)c1 [Compound 116]
10 | 250 to 500 | COc1cc(NC(=O)c2cc(=O)c3ccccc3o2)c(C(=O)Nc2ccc(CCN(C)Cc3cc(-n4cnc(C)c4)ccc3C)cc2)cc1OC [Compound 117]
11 | 250 to 500 | COc1cc(NC(=O)c2cc(=O)c3ccccc3o2)c(C(=O)Nc2ccc(CCN(C)Cc3ccc(-c4cncs4)cc3)cc2)cc1OC [Compound 118]
12 | 100 to 250 | COc1cc(NC(=O)c2cc(=O)c3ccccc3o2)c(C(=O)Nc2ccc(CCN(C)C(=O)CCc3cccnc3)cc2)cc1OC [Compound 119]
13 | 100 to 250 | COc1cc(NC(=O)c2cc(=O)c3ccccc3o2)c(C(=O)Nc2ccc(CCN(C)C(=O)CCc3ccncc3)cc2)cc1OC [Compound 120]
14 | 500 to 1000 | COc1cc(NC(=O)c2cc(=O)c3ccccc3o2)c(C(=O)Nc2ccc(CCN(C)C(=O)c3cccc(-n4ccnc4)c3)cc2)cc1OC [Compound 122]
15 | < 100 | COc1cc(NC(=O)c2cc(=O)c3ccccc3o2)c(C(=O)Nc2ccc(CCN(C)C(=O)c3ccc(-n4ccnc4)cc3)cc2)cc1OC [Compound 123]
16 | 250 to 500 | COc1cc(NC(=O)c2cc(=O)c3ccccc3o2)c(C(=O)Nc2ccc(CCN(C)C(=O)c3cccc(-c4cccnc4)c3)cc2)cc1OC [Compound 124]
17 | 100 to 250 | COc1cc(NC(=O)c2cc(=O)c3ccccc3o2)c(C(=O)Nc2ccc(CCNCc3cccc(-n4ccnc4)c3)cc2)cc1OC [Compound 125]
18 | 500 to 1000 | COc1cc(NC(=O)c2cc(=O)c3ccccc3o2)c(C(=O)Nc2ccc(CCN(C)Cc3cnc(-n4ccnc4)nc3)cc2)cc1OC [Compound 126]
19 | < 100 | CCN(CCc1ccc(NC(=O)c2cc(OC)c(OC)cc2NC(=O)c2cc(=O)c3ccccc3o2)cc1)Cc1cccc(OC[C@@H]2CO[C@@](Cn3ccnc3)(c3ccc(Cl)cc3Cl)O2)c1 [Compound 127]

Row | IC50 [nM] | Compound
20 | 500 to 1000 | COc1cc(NC(=O)c2cc(=O)c(O)co2)c(C(=O)Nc2ccc(CCN(C)Cc3ccc(-n4ccnc4)cc3)cc2)cc1OC [Compound 128]
21 | > 1000 | COc1cc(NC(=O)c2cc(=O)c(O)co2)c(C(=O)Nc2ccc(CCN(C)Cc3cccc(-n4ccnc4)c3)cc2)cc1OC [Compound 129]
22 | < 100 | CCN(CCc1ccc(NC(=O)c2cc(OC)c(OC)cc2NC(=O)c2cc(=O)c3ccccc3o2)cc1)Cc1cccc(OCCn2ccnc2)c1 [Compound 130]
23 | 250 to 500 | CCN(CCc1ccc(NC(=O)c2cc(OC)c(OC)cc2NC(=O)c2cc(=O)c3ccccc3o2)cc1)Cc1ccc(OCCn2ccnc2)cc1 [Compound 131]
24 | 100 to 250 | CCN(CCc1ccc(NC(=O)c2cc(OC)c(OC)cc2NC(=O)c2cc(=O)c3ccccc3o2)cc1)Cc1ccc(OC)c(OCCn2ccnc2)c1 [Compound 132]
25 | > 1000 | CCN(CCc1ccc(NC(=O)c2cc(OC)c(OC)cc2NC(=O)c2cc(=O)c3ccccc3o2)cc1)Cc1ccc(OC)c(O)c1 [Compound 133]
26 | 100 to 250 | CCN(CCc1ccc(NC(=O)c2cc(OC)c(OC)cc2NC(=O)c2cc(=O)c3ccccc3o2)cc1)Cc1ccc(OCCn2ccnc2)c(OC)c1 [Compound 134]
27 | 500 to 1000 | CCN(CCc1ccc(NC(=O)c2cc(OC)c(OC)cc2NC(=O)c2cc(=O)c3ccccc3o2)cc1)Cc1ccc(O)c(OC)c1 [Compound 135]
28 | > 1000 | COc1cc(NC(=O)c2cnc3c(O)cccc3c2)c(C(=O)Nc2ccc(CCN(C)Cc3ccc4c(cnn4C)c3)cc2)cc1OC [Compound 136]
29 | > 1000 | COc1cc(NC(=O)c2cc(=O)c3ccccc3o2)c(C(=O)Nc2ccc(CCN(Cc3ccc4c(cnn4C)c3)Cc3ccc4c(cnn4C)c3)cc2)cc1OC [Compound 137]
30 | > 1000 | COc1cc(NC(=O)c2cc(=O)c3ccccc3o2)c(C(=O)Nc2ccc(CCN(C)Cc3ccc4c(c3)OCO4)cc2)cc1OC [Compound 138]
31 | > 1000 | COc1cc(NC(=O)c2cc(=O)c3ccccc3o2)c(C(=O)Nc2ccc(CCNCc3ccc4c(cnn4C)c3)cc2)cc1OC [Compound 139]
32 | > 1000 | COc1cc(NC(=O)c2cc(=O)c3ccccc3o2)c(C(=O)Nc2ccc(CCN(Cc3ccc4c(cnn4C)c3)Cc3cncs3)cc2)cc1OC [Compound 140]
33 | > 1000 | CCN(CCc1ccc(NC(=O)c2cc(OC)c(OC)cc2NC(=O)c2cc(=O)c3ccccc3o2)cc1)Cc1cccc(-c2ccco2)c1 [Compound 141]
34 | > 1000 | COc1cc(NC(=O)c2cc(=O)c3ccccc3o2)c(C(=O)Nc2ccc(CCN(Cc3ccc(-n4cncn4)cc3)Cc3ccc4c(cnn4C)c3)cc2)cc1OC [Compound 142]
35 | > 1000 | CCN(CCc1ccc(NC(=O)c2cc(OC)c(OC)cc2NC(=O)c2cc(=O)c3ccccc3o2)cc1)Cc1ccc(-c2ccco2)cc1 [Compound 143]
36 | > 1000 | CCN(CCc1ccc(NC(=O)c2cc(OC)c(OC)cc2NC(=O)c2cc(=O)c3ccccc3o2)cc1)Cc1ccc(C)c2ncccc12 [Compound 144]
37 | 500 to 1000 | COc1cc(NC(=O)c2cnc3ccccc3c2)c(C(=O)Nc2ccc(CCN(Cc3ccc(-n4ccnc4)cc3)Cc3ccc4c(cnn4C)c3)cc2)cc1OC [Compound 145]
38 | 500 to 1000 | COc1cc(NC(=O)c2cnc3ccccc3c2)c(C(=O)Nc2ccc(CCN(Cc3cccc(-n4ccnc4)c3)Cc3ccc4c(cnn4C)c3)cc2)cc1OC [Compound 146]

Row | IC50 [nM] | Compound
39 | < 100 | COc1ccc(CN(CCc2ccc(NC(=O)c3cc(OC)c(OC)cc3NC(=O)c3cc(=O)c4ccccc4o3)cc2)Cc2cncn2C)cc1OC [Compound 147]
40 | > 1000 | COc1cc(NC(=O)c2cc(=O)c3ccccc3o2)c(C(=O)Nc2ccc(CCN(C)Cc3ccc(-c4nn[nH]n4)cc3)cc2)cc1OC [Compound 148]
41 | > 1000 | COc1cc(NC(=O)c2cc(=O)c3ccccc3o2)c(C(=O)Nc2ccc(CCN(CCN3CCOCC3)Cc3ccc4c(cnn4C)c3)cc2)cc1OC [Compound 149]
42 | > 1000 | COc1cc(NC(=O)c2cc(=O)c3ccccc3o2)c(C(=O)Nc2ccc(CCN(C)Cc3ccc4c(c3)CCO4)cc2)cc1OC [Compound 155]
43 | > 1000 | COc1cc(NC(=O)c2cc(=O)c3ccccc3o2)c(C(=O)Nc2ccc(CCN(C)Cc3cccc(-c4nc(C)no4)c3)cc2)cc1OC [Compound 157]
44 | > 1000 | CCN(CCc1ccc(NC(=O)c2cc(OC)c(OC)cc2NC(=O)c2cc(=O)c3ccccc3o2)cc1)Cc1ccc2c(c1)n(C)c(=O)n2C [Compound 161]
45 | > 1000 | CCN(CCc1ccc(NC(=O)c2cc(OC)c(OC)cc2NC(=O)c2cc(=O)c3ccccc3o2)cc1)Cc1ccc2c(c1)CCO2 [Compound 162]
46 | > 1000 | COc1cc(NC(=O)c2cc(=O)c3ccccc3o2)c(C(=O)Nc2ccc(CCN(Cc3ccc4c(c3)CCO4)Cc3ccc4c(cnn4C)c3)cc2)cc1OC [Compound 163]
47 | > 1000 | CCN(CCc1ccc(NC(=O)c2cc(OC)c(OC)cc2NC(=O)c2cc(=O)c3ccccc3o2)cc1)Cc1ccc2cnn(C)c2c1 [Compound 164]
48 | > 1000 | CCN(CCc1ccc(NC(=O)c2cc(OC)c(OC)cc2NC(=O)c2cc(=O)c3ccccc3o2)cc1)Cc1ccc2oncc2c1 [Compound 165]
49 | > 1000 | COc1cc(NC(=O)c2cnc3ccccc3n2)c(C(=O)Nc2ccc(CCN(Cc3ccc4c(cnn4C)c3)Cc3ccc4c(cnn4C)c3)cc2)cc1OC [Compound 167]
50 | > 1000 | COc1cc(NC(=O)c2cnc3ccccc3n2)c(C(=O)Nc2ccc(CCN(Cc3ccc4cnn(C)c4c3)Cc3ccc4cnn(C)c4c3)cc2)cc1OC [Compound 168]
51 | > 1000 | COc1cc(NC(=O)c2cnc3ccccc3n2)c(C(=O)Nc2ccc(CCN(Cc3ccc4c(c3)n(C)c(=O)n4C)Cc3ccc4c(c3)n(C)c(=O)n4C)cc2)cc1OC [Compound 169]
52 | > 1000 | COc1cc(NC(=O)c2cc(=O)c3ccccc3o2)c(C(=O)Nc2ccc(CCN(Cc3ccc4cnn(C)c4c3)Cc3ccc4cnn(C)c4c3)cc2)cc1OC [Compound 170]
53 | > 1000 | COc1cc(NC(=O)c2cnc3ccccc3n2)c(C(=O)Nc2ccc(CCN(Cc3ccc4c(cnn4C)c3)Cc3ccc4cnn(C)c4c3)cc2)cc1OC [Compound 172]
54 | > 1000 | COc1cc(NC(=O)c2cnc3ccccc3n2)c(C(=O)Nc2ccc(CCN(Cc3ccc4c(cnn4C)c3)Cc3ccc(C)c4ncccc34)cc2)cc1OC [Compound 173]
55 | < 100 | COc1cc(NC(=O)c2cc(=O)c3ccccc3o2)c(C(=O)Nc2ccc(CCN(Cc3cccc(-n4ccnc4)c3)Cc3ccc4cnn(C)c4c3)cc2)cc1OC [Compound 177]
56 | 250 to 500 | COc1cc(NC(=O)c2cnc3ccccc3c2)c(C(=O)Nc2ccc(CCN(Cc3cccc(-n4ccnc4)c3)Cc3ccc4c(c3)c(C)nn4C)cc2)cc1OC [Compound 179]
